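How tested: cells in 96-well plates exposed to compound for 48 hours at five concentrations. Definition used: TGI = concentration required for complete inhibition of growth.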
Experiments:
Test in all cases: NCI anticancer screen, dose series, 48 h
[1] = test system: SK-OV-3 ovarian
[2] = test system: UO-31 renal
[3] = test system: SNB-19 CNS
[4] = test system: ACHN renal
[5] = test system: OVCAR-5 ovarian
[6] = test system: HOP-92 NSCLC
[7] = test system: HL-60(TB) leukemia
[8] = test system: 786-0 renal
[9] = test system: SF-295 CNS
[10] = test system: M19-MEL melanoma
[11] = test system: TK-10 renal
[12] = test system: RXF-631 renal
[13] = test system: SK-MEL-28 melanoma
[14] = test system: A549 NSCLC
[15] = test system: HCC-2998 colon
[16] = test system: SNB-75 CNS
[17] = test system: OVCAR-4 ovarian
[18] = test system: K-562 leukemia
[19] = test system: KM12 colon
[20] = test system: LOX IMVI melanoma
[21] = test system: NCI-H460 lung
[22] = test system: EKVX NSCLC
[23] = test system: MALME-3M melanoma
[24] = test system: RXF 393 renal
[25] = test system: KM20L2 colon
[26] = test system: M14 melanoma
[27] = test system: HT29 colon
[28] = test system: OVCAR-3 ovarian
[29] = test system: SK-MEL-2 melanoma
[30] = test system: MOLT-4 leukemia
[31] = test system: UACC-257 melanoma
[32] = test system: CAKI-1 renal
[33] = test system: UACC-62 melanoma
[34] = test system: OVCAR-8 ovarian
[35] = test system: NCI-H226 lung
[36] = test system: SF-268 CNS
[37] = test system: NCI-H23 lung
[38] = test system: XF 498 CNS
[39] = test system: HOP-18 NSCLC
[40] = test system: SN12C renal
[41] = test system: SF-539 CNS
[42] = test system: HCT-15 colon
[43] = test system: COLO 205 colon
[44] = test system: SW-620 colon
[45] = test system: HOP-62 NSCLC
[46] = test system: HCT-116 colon
[47] = test system: SK-MEL-5 melanoma
[48] = test system: LXFL 529 NSCLC
[49] = test system: SNB-78 CNS
[50] = test system: IGROV1 ovarian
[51] = test system: DMS 114 small cell lung
[52] = test system: DLD-1 colon
[53] = test system: RPMI-8226 leukemia
[54] = test system: A498 renal
[55] = test system: NCI-H522 lung
[56] = test system: SR leukemia
[57] = test system: DMS 273 small cell lung
[58] = test system: CCRF-CEM leukemia
[59] = test system: U251 CNS

SMILES: COC(=O)C1=CCS(=O)(=O)C1
- TGI [1]: > 100 µM
- TGI [2]: > 100 µM
- TGI [3]: > 100 µM
- TGI [4]: > 100 µM
- TGI [5]: > 100 µM
- TGI [6]: > 100 µM
- TGI [7]: > 100 µM
- TGI [8]: > 100 µM
- TGI [9]: > 100 µM
- TGI [10]: > 100 µM
- TGI [11]: > 100 µM
- TGI [12]: > 100 µM
- TGI [13]: > 100 µM
- TGI [14]: > 100 µM
- TGI [15]: > 100 µM
- TGI [16]: > 100 µM
- TGI [17]: > 100 µM
- TGI [18]: > 100 µM
- TGI [19]: > 100 µM
- TGI [20]: > 100 µM
- TGI [21]: > 100 µM
- TGI [22]: > 100 µM
- TGI [23]: > 100 µM
- TGI [24]: > 100 µM
- TGI [25]: > 100 µM
- TGI [26]: > 100 µM
- TGI [27]: > 100 µM
- TGI [28]: > 100 µM
- TGI [29]: > 100 µM
- TGI [30]: > 100 µM
- TGI [31]: > 100 µM
- TGI [32]: > 100 µM
- TGI [33]: > 100 µM
- TGI [34]: > 100 µM
- TGI [35]: > 100 µM
- TGI [36]: > 100 µM
- TGI [37]: > 100 µM
- TGI [38]: > 100 µM
- TGI [39]: > 100 µM
- TGI [40]: > 100 µM
- TGI [41]: > 100 µM
- TGI [42]: > 100 µM
- TGI [43]: > 100 µM
- TGI [44]: > 100 µM
- TGI [45]: > 100 µM
- TGI [46]: > 100 µM
- TGI [47]: > 100 µM
- TGI [48]: > 100 µM
- TGI [49]: > 100 µM
- TGI [50]: > 100 µM
- TGI [51]: > 100 µM
- TGI [52]: > 100 µM
- TGI [53]: > 100 µM
- TGI [54]: > 100 µM

SMILES: OCC1C2C=CC(O2)[C@H]1CO (some centres undefined)
- TGI [1]: > 100 µM
- TGI [2]: > 100 µM
- TGI [3]: > 100 µM
- TGI [4]: > 100 µM
- TGI [5]: > 100 µM
- TGI [6]: > 100 µM
- TGI [55]: > 100 µM
- TGI [7]: > 100 µM
- TGI [56]: > 100 µM
- TGI [8]: > 100 µM
- TGI [9]: > 100 µM
- TGI [10]: > 100 µM
- TGI [11]: > 100 µM
- TGI [12]: > 100 µM
- TGI [13]: > 100 µM
- TGI [14]: > 100 µM
- TGI [15]: > 100 µM
- TGI [16]: > 100 µM
- TGI [17]: > 100 µM
- TGI [19]: > 100 µM
- TGI [20]: > 100 µM
- TGI [21]: > 100 µM
- TGI [22]: > 100 µM
- TGI [23]: > 100 µM
- TGI [24]: > 100 µM
- TGI [25]: > 100 µM
- TGI [26]: > 100 µM
- TGI [57]: > 100 µM
- TGI [58]: > 100 µM
- TGI [27]: > 100 µM
- TGI [59]: > 100 µM
- TGI [28]: > 100 µM
- TGI [30]: > 100 µM
- TGI [31]: > 100 µM
- TGI [32]: > 100 µM
- TGI [33]: > 100 µM
- TGI [34]: > 100 µM
- TGI [35]: > 100 µM
- TGI [36]: > 100 µM
- TGI [39]: > 100 µM
- TGI [40]: > 100 µM
- TGI [41]: > 100 µM
- TGI [42]: > 100 µM
- TGI [43]: > 100 µM
- TGI [44]: > 100 µM
- TGI [45]: > 100 µM
- TGI [46]: > 100 µM
- TGI [47]: > 100 µM
- TGI [48]: > 100 µM
- TGI [49]: > 100 µM
- TGI [50]: > 100 µM
- TGI [51]: > 100 µM
- TGI [52]: > 100 µM
- TGI [53]: > 100 µM
- TGI [54]: > 100 µM

SMILES: CC(=O)c1ccc(-c2ccc(C(C)=O)s2)s1
- TGI [1]: > 100 µM
- TGI [2]: > 100 µM
- TGI [3]: > 100 µM
- TGI [4]: > 100 µM
- TGI [5]: > 100 µM
- TGI [6]: > 100 µM
- TGI [55]: > 100 µM
- TGI [7]: > 100 µM
- TGI [56]: > 100 µM
- TGI [8]: > 100 µM
- TGI [9]: > 100 µM
- TGI [10]: > 100 µM
- TGI [11]: > 100 µM
- TGI [12]: > 100 µM
- TGI [13]: 3.24 µM
- TGI [14]: > 100 µM
- TGI [15]: > 100 µM
- TGI [16]: > 100 µM
- TGI [17]: > 100 µM
- TGI [18]: > 100 µM
- TGI [19]: > 100 µM
- TGI [20]: > 100 µM
- TGI [21]: > 100 µM
- TGI [22]: > 100 µM
- TGI [23]: > 100 µM
- TGI [24]: > 100 µM
- TGI [25]: > 100 µM
- TGI [26]: > 100 µM
- TGI [57]: > 100 µM
- TGI [58]: > 100 µM
- TGI [27]: > 100 µM
- TGI [59]: > 100 µM
- TGI [28]: > 100 µM
- TGI [29]: > 100 µM
- TGI [30]: > 100 µM
- TGI [31]: > 100 µM
- TGI [32]: > 100 µM
- TGI [33]: > 100 µM
- TGI [34]: > 100 µM
- TGI [35]: > 100 µM
- TGI [37]: > 100 µM
- TGI [38]: > 100 µM
- TGI [39]: > 100 µM
- TGI [40]: > 100 µM
- TGI [41]: > 100 µM
- TGI [42]: > 100 µM
- TGI [43]: > 100 µM
- TGI [44]: > 100 µM
- TGI [45]: > 100 µM
- TGI [46]: > 100 µM
- TGI [47]: > 100 µM
- TGI [48]: > 100 µM
- TGI [49]: > 100 µM
- TGI [50]: > 100 µM
- TGI [51]: 2.76 µM
- TGI [52]: > 100 µM
- TGI [53]: > 100 µM
- TGI [54]: 4.16 µM

SMILES: O=C1CCC(=O)C12CCc1ccccc12
- TGI [1]: > 100 µM
- TGI [2]: > 100 µM
- TGI [4]: > 100 µM
- TGI [6]: > 100 µM
- TGI [7]: > 100 µM
- TGI [8]: > 100 µM
- TGI [9]: > 100 µM
- TGI [10]: > 100 µM
- TGI [11]: > 100 µM
- TGI [12]: > 100 µM
- TGI [13]: > 100 µM
- TGI [14]: > 100 µM
- TGI [15]: > 100 µM
- TGI [16]: > 100 µM
- TGI [17]: > 100 µM
- TGI [20]: > 100 µM
- TGI [21]: > 100 µM
- TGI [22]: > 100 µM
- TGI [23]: > 100 µM
- TGI [24]: > 100 µM
- TGI [25]: > 100 µM
- TGI [26]: > 100 µM
- TGI [57]: > 100 µM
- TGI [27]: > 100 µM
- TGI [59]: > 100 µM
- TGI [28]: > 100 µM
- TGI [32]: > 100 µM
- TGI [33]: > 100 µM
- TGI [34]: > 100 µM
- TGI [36]: > 100 µM
- TGI [37]: > 100 µM
- TGI [38]: > 100 µM
- TGI [39]: > 100 µM
- TGI [40]: > 100 µM
- TGI [42]: > 100 µM
- TGI [43]: > 100 µM
- TGI [44]: > 100 µM
- TGI [45]: > 100 µM
- TGI [48]: > 100 µM
- TGI [50]: > 100 µM
- TGI [51]: > 100 µM
- TGI [52]: > 100 µM
